Data on one molecule can be found in ChEMBL document CHEMBL1153831, “Azithromycin blocks quorum sensing and alginate polymer formation and increases the sensitivity to serum and stationary-growth-phase killing of Pseudomonas aeruginosa and attenuates chronic P. aeruginosa lung infection in Cftr(-/-) mice” (Antimicrob Agents Chemother, 2007).

SMILES strings stand for the structures. Active and inactive are the calls of the source. The calls are words filed in the database; no cut-off is given here.

In series [1] the test system is Pseudomonas aeruginosa. Nature of the series: Antimicrobial activity against Pseudomonas aeruginosa NH57388A mucoid isolate expressing quorum sensing lasI assessed as reduction of viable count at 12 ug/mL in presence of 2.5% human normal serum. Format: functional.
Series [2] deals with Pseudomonas aeruginosa. Description: Antimicrobial activity against Pseudomonas aeruginosa NH57388A mucoid isolate harboring GFP-fused […] lasB gene infected in ftr-tml-Unc-TgN(FABPCFTR) cystic fibrosis mouse assessed as mortality at 500 mg/kg, po administered 24 hrs postinfection daily once for 5 days measured after 7 days postinfection. Format: functional.

In series [3] the test system is Pseudomonas aeruginosa. Description: Antimicrobial activity in Pseudomonas aeruginosa NH57388A mucoid isolate harboring GFP-fused avian sarcoma virus lasB gene infected in ftr-tml-Unc-TgN(FABPCFTR) cystic fibrosis mouse lung assessed as fibrous spongy-like material surrounding polymorphonuclear leukocytes at 500 mg/kg, po administered 24 hrs after infection daily once for 5 days measured after 7 days postinfection by histopathology. The class given is functional, organism-based. Details: dose 500 mg/kg.

The test system of series [4] is Pseudomonas aeruginosa. Description: Antimicrobial activity against quorum sensing lasI-deficient isogenic Pseudomonas aeruginosa NH57388D mucoid isolate assessed as reduction of viable count at 12 ug/mL in presence of 2.5% human normal serum. The class given is functional.
The nature of series [5]: Elimination half life in human. Format: ADME, organism-based. The following applies: in vivo, read-out: beta t1/2 (converted).
Series [6] concerns Pseudomonas aeruginosa. Description: Inhibition of quorum sensing-regulated chitinase production in Pseudomonas aeruginosa NH57388A mucoid isolate harboring GFP-fused […] lasB gene assessed as enzyme activity per cell at 4 ug/mL after 24 hrs relative to control. Format: functional.
Series [7] relates to Pseudomonas aeruginosa. Description: Inhibition of quorum sensing-regulated elastase production in Pseudomonas aeruginosa NH57388A mucoid isolate harboring GFP-fused […] lasB gene assessed as enzyme activity per cell at 4 ug/mL after 24 hrs relative to control. Format: functional.
The subject of series [8] is Pseudomonas aeruginosa. Description: Inhibition of quorum sensing-regulated alginate production in Pseudomonas aeruginosa NH57388A mucoid isolate harboring GFP-fused […] lasB gene assessed as enzyme activity per cell at 2 ug/mL after 24 hrs relative to control. Format: functional.
The subject of series [9] is Pseudomonas aeruginosa. Description: Antimicrobial activity in Pseudomonas aeruginosa NH57388A mucoid isolate harboring GFP-fused avian sarcoma virus lasB gene infected in ftr-tml-Unc-TgN(FABPCFTR) cystic fibrosis mouse lung assessed as scattered residues of alginate without bacteria at 500 mg/kg, po administered 24 hrs after infection daily once for 5 days measured after 7 days postinfection by histopathology. Format: functional, organism-based. Details: dose 500 mg/kg.

The test system of series [10] is Pseudomonas aeruginosa. Nature of the series: Antimicrobial activity in Pseudomonas aeruginosa NH57388A mucoid isolate harboring GFP-fused avian sarcoma virus lasB gene infected in ftr-tml-Unc-TgN(FABPCFTR) cystic fibrosis mouse assessed as frequency of lung abscesses at 500 mg/kg, po administered 24 hrs after infection daily once for 5 days measured after 7 days postinfection. The class given is functional.

The nature of series [11]: Drug level in Cftr-tml-Unc-TgN(FABPCFTR) cystic fibrosis mouse serum at 500 mg/kg, po after 2 hrs. Format: ADME, organism-based. Details: dose 500 mg/kg, route oral. The following applies: read-out: Drug uptake.
Series [12] relates to Pseudomonas aeruginosa. Nature of the series: Inhibition of alginate synthesis in Pseudomonas aeruginosa NH57388A mucoid isolate supernatant assessed as uronic acid concentration in dialysis bag before exhaustive dialysis at 12 ug/mL after 24 hrs by carbazole-borate assay. The class given is functional.
Series [13] deals with Pseudomonas aeruginosa. Description: Antimicrobial activity against Pseudomonas aeruginosa NH57388A mucoid isolate harboring GFP-fused […] lasB gene infected in ftr-tml-Unc-TgN(FABPCFTR) cystic fibrosis mouse lungs assessed as reduction in GFP signal at 250 mg/kg, iv administered 24 hrs after infection measured after 24 hrs. The class given is functional, organism-based. Details: dose 250 mg/kg.

For series [14], the system named is Pseudomonas aeruginosa. Description: Inhibition of quorum sensing-regulated pyocyanin production in Pseudomonas aeruginosa NH57388A mucoid isolate harboring GFP-fused […] lasB gene assessed as enzyme activity per cell at 8 ug/mL after 24 hrs relative to control. The class given is functional.
In series [15] the test system is Pseudomonas aeruginosa. Nature of the series: Antimicrobial activity against Pseudomonas aeruginosa NH57388A mucoid isolate assessed as reduction of viable count in exponential phase at 64 ug/mL after 8 hrs. Format: functional.
In series [16] the test system is Pseudomonas aeruginosa. Description: Inhibition of alginate synthesis in Pseudomonas aeruginosa NH57388A mucoid isolate supernatant assessed as uronic acid fraction out of the dialysis bag of total amount of uronic acids after equilibrium dialysis at 12 ug/mL after 24 hrs by carbazole-borate assay. The class given is functional. Details: scale not given: the % may be the effect or the level left. For orientation: In equilibrium dialysis only unbound substance equilibrates across the membrane.

For series [17], the system named is Pseudomonas aeruginosa. Description: Antimicrobial activity against Pseudomonas aeruginosa NH57388A mucoid isolate assessed as reduction of viable count in stationary phase at 2 ug/mL after 8 hrs. Format: functional.
Series [18] deals with Pseudomonas aeruginosa. Nature of the series: Increase in sensitivity of hydrogen peroxide to quorum sensing lasI-deficient isogenic Pseudomonas aeruginosa NH57388A mucoid isolate mutant assessed as increase in zone of inhibition at 12 ug/mL after 48 hrs relative to untreated bacterial control. On the set-up: scale not given: the % may be the effect or the level left. Format: functional.

Series [19] deals with Pseudomonas aeruginosa. Description: Inhibition of alginate synthesis in Pseudomonas aeruginosa NH57388A mucoid isolate supernatant assessed as uronic acid concentration in dialysis bag after exhaustive dialysis at 12 ug/mL after 24 hrs by carbazole-borate assay. Format: functional.
Series [20] has as its system Pseudomonas aeruginosa. Description: Antimicrobial activity against quorum sensing lasI-deficient isogenic Pseudomonas aeruginosa NH57388E nonmucoid isolate assessed as reduction of viable count at 12 ug/mL in absence of 2.5% human normal serum. Format: functional.
In series [21] the test system is Pseudomonas aeruginosa. Description: Antimicrobial activity against Pseudomonas aeruginosa NH57388A mucoid isolate assessed as reduction of viable count in exponential phase at 256 ug/mL after 8 hrs. Format: functional.
Series [22] relates to Pseudomonas aeruginosa. Description: Inhibition of quorum sensing-regulated elastase production in Pseudomonas aeruginosa NH57388A mucoid isolate harboring GFP-fused […] lasB gene assessed as enzyme activity per cell at 2 ug/mL after 24 hrs relative to control. Format: functional.
Series [23] concerns Pseudomonas aeruginosa. Nature of the series: Antimicrobial activity against Pseudomonas aeruginosa NH57388C nonmucoid isolate expressing quorum sensing lasI assessed as reduction of viable count at 12 ug/mL in absence of 2.5% human normal serum. The class given is functional.
For series [24], the system named is Pseudomonas aeruginosa. Nature of the series: Inhibition of quorum sensing-regulated alginate production in Pseudomonas aeruginosa NH57388A mucoid isolate harboring GFP-fused […] lasB gene assessed as enzyme activity per cell at 4 ug/mL after 24 hrs relative to control. The class given is functional.

Broadly, the inhibition is the percentage by which the read-out fell short of the control.

As for `CC[C@H]1OC(=O)[C@H](C)[C@@H](O[C@H]2C[C@@](C)(OC)[C@@H](O)[C@H](C)O2)[C@H](C)[C@@H](O[C@@H]2O[C@H](C)C[C@H](N(C)C)[C@H]2O)[C@](C)(O)C[C@@H](C)CN(C)[C@H](C)[C@@H](O)[C@]1(C)O` [AZITHROMYCIN], the CFU with Pseudomonas aeruginosa [1] was 2.5 ×10² /ml; in the series on Pseudomonas aeruginosa [4], 8.6 ×10⁵ /ml; in the series with Pseudomonas aeruginosa [20], 3.8 ×10⁷ /ml; with Pseudomonas aeruginosa [23], 110 ×10⁵ /ml. Further, the Activity in the series on Pseudomonas aeruginosa [2] worked out at 24%; with Pseudomonas aeruginosa [10] it was 32%; in the series with Pseudomonas aeruginosa [12], 316 µg/mL; in the series with Pseudomonas aeruginosa [15] it was 87%; in the series with Pseudomonas aeruginosa [16] it was 31.2%; in the series on Pseudomonas aeruginosa [17] it was 88%. The Activity with Pseudomonas aeruginosa [18] worked out at 43%; with Pseudomonas aeruginosa [19] it was 103 µg/mL; in the series on Pseudomonas aeruginosa [21], 99%. The result with Pseudomonas aeruginosa [3], in the series with Pseudomonas aeruginosa [9] and with Pseudomonas aeruginosa [13] was Active. The half-life in [5] was 68 h. Also, the inhibition at 4 µg/mL in the series on Pseudomonas aeruginosa [6] turned out to be 15%; with Pseudomonas aeruginosa [7] it was 45%; in the series with Pseudomonas aeruginosa [24], 56%. Moreover, the inhibition at 2 µg/mL in the series with Pseudomonas aeruginosa [8] was 63%; in the series on Pseudomonas aeruginosa [22], 77%. Also, the concentration at 2 h in series [11] amounted to 3100 ng/mL. Further, the inhibition at 8 µg/mL in the series on Pseudomonas aeruginosa [14] came out at 16%.
